Results published in ChEMBL document CHEMBL1201862, “PubChem BioAssay data set” (2004).
Structures can show the parent of a compound that is named as a salt. Active and inactive are the calls of the source.

Assays:
[1] = biological target: Eukaryotic translation initiation factor 4E (Mus musculus, UniProt P63073); assay: eIF4E–eIF4G protein interaction inhibitors, dose response, biochemical, TR-FRET (AID 855); assay type: functional;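 also: potency for disrupting eIF4E binding to eIF4GI seen as loss of FRET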
Sequence of Eukaryotic translation initiation factor 4E (P63073 whole entry): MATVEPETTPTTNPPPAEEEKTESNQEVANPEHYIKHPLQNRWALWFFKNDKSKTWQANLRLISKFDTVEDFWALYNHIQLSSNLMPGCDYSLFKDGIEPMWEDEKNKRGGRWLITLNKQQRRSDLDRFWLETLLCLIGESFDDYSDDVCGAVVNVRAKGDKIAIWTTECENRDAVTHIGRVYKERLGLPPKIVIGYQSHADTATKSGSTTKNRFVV

SUMO-activating enzyme [2] = biological target: T1, SUMO-activating enzyme (Homo sapiens, UniProt Q9UBT2); assay: SUMOylation inhibitor hit validation, confirmation, SUMOylation inhibitor project, biochemical, AlphaScreen (AID 2018); assay type: functional
T1 sequence (Q9UBE0 whole entry): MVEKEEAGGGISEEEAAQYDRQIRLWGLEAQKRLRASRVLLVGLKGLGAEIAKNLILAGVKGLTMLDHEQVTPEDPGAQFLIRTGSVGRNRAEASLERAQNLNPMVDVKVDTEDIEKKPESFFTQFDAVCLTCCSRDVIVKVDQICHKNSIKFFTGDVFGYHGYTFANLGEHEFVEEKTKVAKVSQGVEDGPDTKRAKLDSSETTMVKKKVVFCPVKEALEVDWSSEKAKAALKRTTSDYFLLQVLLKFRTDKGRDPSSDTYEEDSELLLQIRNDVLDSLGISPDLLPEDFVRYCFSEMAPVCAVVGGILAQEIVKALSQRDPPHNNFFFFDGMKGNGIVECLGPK
T1 sequence (Q9UBT2 whole entry): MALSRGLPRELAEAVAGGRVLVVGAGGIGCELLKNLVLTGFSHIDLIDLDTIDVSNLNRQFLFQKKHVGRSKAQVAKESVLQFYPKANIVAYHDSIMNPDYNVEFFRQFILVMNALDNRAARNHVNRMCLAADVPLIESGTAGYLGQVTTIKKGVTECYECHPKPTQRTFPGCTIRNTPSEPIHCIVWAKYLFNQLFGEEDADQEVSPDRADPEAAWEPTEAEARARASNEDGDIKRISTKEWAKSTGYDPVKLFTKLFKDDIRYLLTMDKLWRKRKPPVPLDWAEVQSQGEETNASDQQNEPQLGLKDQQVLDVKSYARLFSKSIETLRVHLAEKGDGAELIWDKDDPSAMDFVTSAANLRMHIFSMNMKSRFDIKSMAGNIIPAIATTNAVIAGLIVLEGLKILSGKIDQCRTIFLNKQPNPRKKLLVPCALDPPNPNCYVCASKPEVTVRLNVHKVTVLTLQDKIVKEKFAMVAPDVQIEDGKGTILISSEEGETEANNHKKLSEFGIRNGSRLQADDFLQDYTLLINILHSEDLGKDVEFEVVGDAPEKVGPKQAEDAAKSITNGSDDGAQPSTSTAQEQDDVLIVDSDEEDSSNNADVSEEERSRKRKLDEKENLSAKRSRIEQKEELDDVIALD

[3] = Luminescence Cell-Based Dose Retest to Confirm Inhibitors of Cancer Stem Cells. [Related pubchem assays (depositor defined):AID2717, AID2721]; assay type: functional; details: Homo sapiens
SUMO-activating enzyme [4] = biological target: T1, SUMO-activating enzyme; assay: inhibitors of in vitro SUMOylation cascade, primary screen, biochemical, HTRF, uHTS (AID 2006); assay type: protein-complex assay
[5] = biological target: G2/mitotic-specific cyclin-B1 (Homo sapiens, UniProt P14635); assay: G2/M cell cycle arrest in HeLa, late-stage follow-up, mechanism study for Wee1 degradation inhibitor project, FACS, panel member Cyclin B Degradation (AID 2088)
Sequence of G2/mitotic-specific cyclin-B1 (P14635 whole entry): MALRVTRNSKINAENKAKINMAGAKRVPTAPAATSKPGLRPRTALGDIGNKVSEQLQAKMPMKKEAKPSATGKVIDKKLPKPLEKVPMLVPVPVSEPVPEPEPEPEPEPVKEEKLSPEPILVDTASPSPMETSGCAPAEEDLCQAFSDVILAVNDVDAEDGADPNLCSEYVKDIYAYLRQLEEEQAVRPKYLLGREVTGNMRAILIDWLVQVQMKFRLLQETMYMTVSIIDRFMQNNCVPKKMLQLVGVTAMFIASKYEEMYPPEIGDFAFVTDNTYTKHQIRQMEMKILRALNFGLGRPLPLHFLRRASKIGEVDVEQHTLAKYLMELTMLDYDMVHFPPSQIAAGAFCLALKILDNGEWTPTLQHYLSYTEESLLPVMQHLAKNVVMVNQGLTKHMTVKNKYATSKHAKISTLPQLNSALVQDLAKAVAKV

Wee1-like protein kinase = Wee1-like protein kinase (Homo sapiens, UniProt P30291); assay: G2/M cell cycle arrest in HeLa, late-stage follow-up, mechanism study for Wee1 degradation inhibitor project, FACS, panel member Wee1 Degradation (AID 2088)
[6] = biological target: Scavenger receptor class B member 1 (Mus musculus, UniProt Q61009); assay: inhibitors of SR-BI mediated HDL lipid uptake, dose response, ldlA[mSR-BI] cells, fluorescence, cherry pick (AID 493194); assay type: functional, cell-based;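 also: cellular uptake of fluorescent DiI-labeled HDL measured as cell fluorescence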
Beta-galactosidase = Beta-galactosidase (Escherichia coli, UniProt Q8VNN2); assay type: functional
Sequence of Beta-galactosidase (Q8VNN2 whole entry): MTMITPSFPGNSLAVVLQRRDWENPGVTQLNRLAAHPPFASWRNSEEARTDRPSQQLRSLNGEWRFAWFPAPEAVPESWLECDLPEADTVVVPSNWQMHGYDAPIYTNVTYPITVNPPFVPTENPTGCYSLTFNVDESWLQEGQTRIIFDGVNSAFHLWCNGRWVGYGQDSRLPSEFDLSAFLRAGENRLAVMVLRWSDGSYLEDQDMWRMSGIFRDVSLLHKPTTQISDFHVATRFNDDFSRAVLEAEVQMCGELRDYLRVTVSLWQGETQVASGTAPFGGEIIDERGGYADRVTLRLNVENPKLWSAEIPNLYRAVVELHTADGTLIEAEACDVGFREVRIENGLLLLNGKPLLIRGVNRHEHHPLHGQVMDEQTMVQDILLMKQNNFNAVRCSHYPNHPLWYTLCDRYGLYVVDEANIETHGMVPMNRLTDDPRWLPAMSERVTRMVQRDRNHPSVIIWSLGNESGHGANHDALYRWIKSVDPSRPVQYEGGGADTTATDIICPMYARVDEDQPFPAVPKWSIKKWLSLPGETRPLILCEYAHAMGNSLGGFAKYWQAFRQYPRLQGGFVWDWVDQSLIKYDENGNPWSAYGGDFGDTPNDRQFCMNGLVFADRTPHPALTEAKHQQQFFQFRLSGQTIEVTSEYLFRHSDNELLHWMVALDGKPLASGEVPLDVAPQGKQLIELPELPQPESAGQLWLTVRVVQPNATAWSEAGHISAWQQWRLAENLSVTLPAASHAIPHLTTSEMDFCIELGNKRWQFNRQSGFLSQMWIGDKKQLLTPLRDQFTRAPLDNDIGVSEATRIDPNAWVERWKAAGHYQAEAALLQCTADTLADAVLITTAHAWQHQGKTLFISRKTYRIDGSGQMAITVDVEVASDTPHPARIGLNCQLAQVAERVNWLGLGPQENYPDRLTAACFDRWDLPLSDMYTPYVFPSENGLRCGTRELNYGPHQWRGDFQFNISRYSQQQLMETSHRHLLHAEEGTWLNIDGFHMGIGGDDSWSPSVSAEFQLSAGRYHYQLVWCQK

[7] = biological target: Heat shock cognate 71 kDa protein (Homo sapiens, UniProt P11142); assay: In Vitro Hsc70 Dose Response Fluorescence Polarization Assay. [Related pubchem assays: 1072 ]
[8] = biological target: Glyceraldehyde-3-phosphate dehydrogenase (Homo sapiens, UniProt P04406)
[9] = biological target: T2, Dual specificity protein phosphatase 6 (Rattus norvegicus, UniProt Q64346)
T2 sequence (Q64346 whole entry): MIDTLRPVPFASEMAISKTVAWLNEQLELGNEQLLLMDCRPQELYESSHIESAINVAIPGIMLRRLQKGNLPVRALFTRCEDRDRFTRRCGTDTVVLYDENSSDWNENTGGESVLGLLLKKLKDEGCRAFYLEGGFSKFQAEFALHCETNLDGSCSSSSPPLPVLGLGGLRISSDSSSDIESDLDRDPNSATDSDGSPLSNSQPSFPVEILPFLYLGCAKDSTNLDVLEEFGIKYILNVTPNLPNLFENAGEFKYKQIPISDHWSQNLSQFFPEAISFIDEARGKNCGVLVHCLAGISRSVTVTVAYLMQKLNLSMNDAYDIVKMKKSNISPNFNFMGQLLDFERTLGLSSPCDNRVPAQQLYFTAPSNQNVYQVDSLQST

[10] = biological target: Heat shock 70 kDa protein 1A (Homo sapiens, UniProt P0DMV8); assay: Hsp70 inhibitors, SAR follow-up, biochemical, fluorescence polarization (AID 1072)
[11] = biological target: T2, Dual specificity protein phosphatase 6; assay type: functional
[12] = biological target: T3, Tyrosine-protein phosphatase non-receptor type 7 (Homo sapiens, UniProt P35236); assay type: functional
T3 sequence (P35236 whole entry): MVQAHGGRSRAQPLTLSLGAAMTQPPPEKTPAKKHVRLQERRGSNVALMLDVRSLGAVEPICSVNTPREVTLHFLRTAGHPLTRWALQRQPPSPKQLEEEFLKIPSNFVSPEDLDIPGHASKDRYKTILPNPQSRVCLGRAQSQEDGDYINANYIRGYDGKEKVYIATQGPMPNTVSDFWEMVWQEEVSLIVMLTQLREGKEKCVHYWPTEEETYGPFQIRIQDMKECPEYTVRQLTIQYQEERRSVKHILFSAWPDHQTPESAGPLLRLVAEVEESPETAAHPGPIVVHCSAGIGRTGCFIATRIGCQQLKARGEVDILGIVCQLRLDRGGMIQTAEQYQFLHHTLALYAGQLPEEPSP

[13] = cytotoxicity in HEK-293T cells, dose response, cytotoxicity control for BCR NF-kB inhibitor project, luminescence, B-cell screen hits (AID 489021); assay type: functional, cell-based;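 also: HEK-293T cells carrying an NF-kB luciferase reporter; cells exposed to compound for about 14 hours before viability readout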
Streptococcus [14] = assay: Luminescence Microorganism-Based Dose Response Follow up to Identify Compounds Cytotoxic to Streptococcus. [Related pubchem assays: 1677 (Project Summary), 1915, 1914, 1902 (Retest at Dose), 1900 (Counter Screen), 1662 (Primary HTS)]; assay type: functional, organism-based
Streptokinase A = biological target: T4, Streptokinase A (Streptococcus pyogenes serotype M1, UniProt P10520); assay: S. pyogenes streptokinase expression inhibitors, potency, dose response, plasminogen activation absorbance, OD405 (AID 1914); assay type: functional, Streptococcus pyogenes M1 GAS;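 also: secreted streptokinase activity via plasminogen activation per viability signal from cell pellet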
T4 sequence (P10520 whole entry): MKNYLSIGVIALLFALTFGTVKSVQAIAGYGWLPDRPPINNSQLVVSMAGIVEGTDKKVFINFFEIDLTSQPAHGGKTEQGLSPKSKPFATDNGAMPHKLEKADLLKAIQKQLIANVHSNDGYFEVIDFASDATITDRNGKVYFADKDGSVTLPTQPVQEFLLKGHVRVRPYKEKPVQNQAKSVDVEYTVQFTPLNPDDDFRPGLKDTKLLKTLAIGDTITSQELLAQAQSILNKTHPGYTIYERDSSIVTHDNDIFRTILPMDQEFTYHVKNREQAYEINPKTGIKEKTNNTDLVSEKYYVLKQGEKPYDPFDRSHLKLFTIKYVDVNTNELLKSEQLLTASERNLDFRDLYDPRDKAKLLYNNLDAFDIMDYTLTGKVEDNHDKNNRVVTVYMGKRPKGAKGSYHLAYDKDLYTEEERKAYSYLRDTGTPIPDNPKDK

[15] = test system: Streptococcus sp. 'group A'; assay: growth inhibition of control SK(-) GAS strain, dose response, counter-screen for streptokinase expression inhibitor project, luminescence, kanamycin, BacTiterGlo, confirmation (AID 1900); assay type: functional, organism-based
Streptococcus [16] = assay: Group A Streptococcus viability loss, dose response, counter-screen for streptokinase expression inhibitor project, luminescence, BacTiterGlo (AID 1915); assay type: functional, organism-based;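 also: potency for reduction of bacterial viability or growth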
[17] = NIH-3T3 fibroblast cytotoxicity, dose response, cytotoxicity control, cell-based, fluorescence, Alamar Blue, secondary assay (AID 2327); assay type: functional;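 also: NIH-3T3 mouse fibroblasts cultured with fluconazole at 8 µg/mL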
[18] = biological target: Serine/threonine-protein phosphatase PP1-alpha catalytic subunit (Homo sapiens, UniProt P62136); assay: PP1 phosphatase inhibitors, dose response, biochemical, fluorescence (AID 2403);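 also: phosphatase turnover of OMFP into fluorescent 3-O-methylfluorescein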
Sequence of Serine/threonine-protein phosphatase PP1-alpha catalytic subunit (P62136 whole entry): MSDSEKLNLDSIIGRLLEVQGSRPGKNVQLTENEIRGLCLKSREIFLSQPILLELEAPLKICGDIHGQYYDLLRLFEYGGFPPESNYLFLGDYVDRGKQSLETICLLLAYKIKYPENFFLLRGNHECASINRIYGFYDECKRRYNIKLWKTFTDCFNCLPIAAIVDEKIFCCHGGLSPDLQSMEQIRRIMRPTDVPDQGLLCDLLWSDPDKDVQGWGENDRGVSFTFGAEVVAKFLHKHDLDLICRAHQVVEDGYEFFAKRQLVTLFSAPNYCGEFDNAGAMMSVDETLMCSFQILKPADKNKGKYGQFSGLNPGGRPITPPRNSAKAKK

[19] = C. albicans growth with fluconazole, confirmation, fluorescence, retest (AID 2467); assay type: functional, cell-based
Estrogen receptor beta = Estrogen receptor beta (Homo sapiens, UniProt Q92731); assay: ERβ–SRC-3 coactivator interaction inhibitors, confirmation, orthogonal assay, biochemical, ELISA, streptavidin-HRP readout (AID 1060)
[20] = biological target: T5, Mannose-6-phosphate isomerase (Homo sapiens, UniProt P34949); assay: human PMI inhibitors, high substrate, primary screen, biochemical, fluorescence intensity, high mannose 6-phosphate (AID 1220)
T5 sequence (P34949 whole entry): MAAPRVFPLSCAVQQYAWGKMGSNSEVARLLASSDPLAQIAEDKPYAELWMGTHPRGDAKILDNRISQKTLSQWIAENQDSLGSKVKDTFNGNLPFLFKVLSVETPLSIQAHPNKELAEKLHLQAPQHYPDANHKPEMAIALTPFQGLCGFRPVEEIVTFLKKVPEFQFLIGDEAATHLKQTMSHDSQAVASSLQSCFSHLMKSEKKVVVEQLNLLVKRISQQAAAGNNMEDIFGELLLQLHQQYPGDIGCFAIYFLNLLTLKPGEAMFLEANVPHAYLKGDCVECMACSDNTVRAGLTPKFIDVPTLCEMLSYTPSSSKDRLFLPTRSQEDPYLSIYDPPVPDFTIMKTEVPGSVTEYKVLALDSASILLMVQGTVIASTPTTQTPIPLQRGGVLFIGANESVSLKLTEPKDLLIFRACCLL

[21] = biological target: T6, Heat shock factor protein 1 (Mus musculus, UniProt P38532); assay: HSF1 potentiators in luciferase reporter cells, confirmation, cell-based, NIH3T3, luminescence, dose retest (AID 435004); assay type: functional;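 also: stress induced by proteasome inhibitor MG132 added 30 min after compound; luciferase reporter driven by HSF1 response element in NIH3T3 cells; actives raise luminescence as potentiators of the MG132 stress response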
T6 sequence (P38532 whole entry): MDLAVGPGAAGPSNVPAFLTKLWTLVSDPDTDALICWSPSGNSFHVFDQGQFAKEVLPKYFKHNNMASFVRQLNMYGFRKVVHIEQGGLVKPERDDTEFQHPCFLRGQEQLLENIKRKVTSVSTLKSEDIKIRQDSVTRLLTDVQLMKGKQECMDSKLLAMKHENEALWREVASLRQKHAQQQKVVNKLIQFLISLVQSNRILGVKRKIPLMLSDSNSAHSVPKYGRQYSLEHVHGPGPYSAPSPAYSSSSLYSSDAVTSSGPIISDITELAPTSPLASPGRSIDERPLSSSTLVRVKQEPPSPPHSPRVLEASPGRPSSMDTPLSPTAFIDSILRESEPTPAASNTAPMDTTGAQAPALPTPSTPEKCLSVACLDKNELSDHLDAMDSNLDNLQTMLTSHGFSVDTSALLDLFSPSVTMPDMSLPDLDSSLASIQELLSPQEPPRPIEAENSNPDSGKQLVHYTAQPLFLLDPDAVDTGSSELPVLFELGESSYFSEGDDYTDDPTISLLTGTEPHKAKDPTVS

[22] = cytotoxicity in KRAS-transformed pancreatic duct cells, primary screen, cell-based, fluorescence, HTS (AID 431); assay type: functional; details: Homo sapiens;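 also: cell line used: HPDE-C7K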
[23] = cytotoxicity in HPDE-C7 cells, cell-based, fluorescence, HTS (AID 430); assay type: functional; details: Homo sapiens
[24] = biological target: Serine/threonine-protein phosphatase (Homo sapiens, UniProt Q9BPW0); assay: Counterscreen for inhibitors of PP1: fluorescence-based biochemical high throughput dose response assay to identify inhibitors of Protein Phosphatase 5 (PP5). [Related pubchem assays: 2034 (Summary (PP5 inhibitors)), 1987 (PP5 inhibitors in singlate), 2235 (PP1 inhibitors in singlate)]
[25] = biological target: 26S proteasome non-ATPase regulatory subunit 14 (Homo sapiens, UniProt O00487); assay: inhibition of proteasome subunit RPN11 – biochemical, fluorescence polarization, uHTS hits, confirmation (AID 602368); assay type: functional
[26] = biological target: DNA (cytosine-5)-methyltransferase 1 (Homo sapiens, UniProt P26358); assay: DNMT1 methyltransferase inhibitors, confirmation, biochemical, fluorescent molecular beacon (AID 602386); assay type: functional
[27] = biological target: Induced myeloid leukemia cell differentiation protein Mcl-1 (Homo sapiens, UniProt Q07820); assay: MCL1-BIM BH3 interaction inhibitors, dose response, biochemical, fluorescence polarization, BIM-BH3 peptide, 1536-well (AID 2217)
Hexokinase HKDC1 = Hexokinase HKDC1 (Homo sapiens, UniProt Q2TB90); assay: HKDC1 hexokinase inhibitors, dose response, biochemical, W721R variant (AID 504729); assay type: functional
Sequence of Hexokinase HKDC1 (Q2TB90 whole entry): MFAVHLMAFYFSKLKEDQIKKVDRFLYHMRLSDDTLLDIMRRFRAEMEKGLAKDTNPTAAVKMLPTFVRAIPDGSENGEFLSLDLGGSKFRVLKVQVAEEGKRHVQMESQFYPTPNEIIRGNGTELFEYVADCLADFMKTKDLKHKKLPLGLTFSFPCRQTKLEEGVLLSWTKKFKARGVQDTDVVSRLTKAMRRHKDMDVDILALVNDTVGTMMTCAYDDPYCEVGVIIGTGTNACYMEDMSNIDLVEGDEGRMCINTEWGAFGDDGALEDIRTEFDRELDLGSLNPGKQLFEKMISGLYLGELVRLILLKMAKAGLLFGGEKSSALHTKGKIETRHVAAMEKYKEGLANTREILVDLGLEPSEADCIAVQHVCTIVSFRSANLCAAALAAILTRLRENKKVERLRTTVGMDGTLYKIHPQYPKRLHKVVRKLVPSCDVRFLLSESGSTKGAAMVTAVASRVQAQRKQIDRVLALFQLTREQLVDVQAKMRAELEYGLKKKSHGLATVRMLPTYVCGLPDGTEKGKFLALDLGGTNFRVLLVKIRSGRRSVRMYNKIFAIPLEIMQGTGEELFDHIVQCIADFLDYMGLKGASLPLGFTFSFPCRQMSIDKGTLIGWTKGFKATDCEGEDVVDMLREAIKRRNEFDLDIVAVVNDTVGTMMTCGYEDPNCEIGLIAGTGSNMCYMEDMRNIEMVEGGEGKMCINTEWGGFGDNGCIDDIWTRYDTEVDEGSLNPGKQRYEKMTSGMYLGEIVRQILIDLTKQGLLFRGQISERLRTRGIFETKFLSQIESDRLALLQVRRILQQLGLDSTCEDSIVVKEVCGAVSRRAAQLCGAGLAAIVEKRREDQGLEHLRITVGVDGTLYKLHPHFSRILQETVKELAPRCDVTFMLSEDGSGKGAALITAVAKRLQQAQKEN

Bcl-2-like protein 1 = Bcl-2-like protein 1 (Homo sapiens, UniProt Q07817); assay: BCL-XL inhibitors, dose response, selectivity assay for MCL1 inhibitor project, biochemical, fluorescence polarization, 1536-well (AID 2218)
Sequence of Bcl-2-like protein 1 (Q07817 whole entry): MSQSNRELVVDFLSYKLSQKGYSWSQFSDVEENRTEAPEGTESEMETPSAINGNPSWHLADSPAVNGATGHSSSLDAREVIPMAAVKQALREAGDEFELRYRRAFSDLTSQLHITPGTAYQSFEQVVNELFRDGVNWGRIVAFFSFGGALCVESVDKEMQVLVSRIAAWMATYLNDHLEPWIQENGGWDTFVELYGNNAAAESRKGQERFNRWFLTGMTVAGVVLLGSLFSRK

[28] = biological target: 72 kDa type IV collagenase (Homo sapiens, UniProt P08253); assay: Dose Response validation of uHTS RPN11 inhibitor hits using a MMP-2 Fluorescence assay.; assay type: functional
Sequence of 72 kDa type IV collagenase (P08253 whole entry): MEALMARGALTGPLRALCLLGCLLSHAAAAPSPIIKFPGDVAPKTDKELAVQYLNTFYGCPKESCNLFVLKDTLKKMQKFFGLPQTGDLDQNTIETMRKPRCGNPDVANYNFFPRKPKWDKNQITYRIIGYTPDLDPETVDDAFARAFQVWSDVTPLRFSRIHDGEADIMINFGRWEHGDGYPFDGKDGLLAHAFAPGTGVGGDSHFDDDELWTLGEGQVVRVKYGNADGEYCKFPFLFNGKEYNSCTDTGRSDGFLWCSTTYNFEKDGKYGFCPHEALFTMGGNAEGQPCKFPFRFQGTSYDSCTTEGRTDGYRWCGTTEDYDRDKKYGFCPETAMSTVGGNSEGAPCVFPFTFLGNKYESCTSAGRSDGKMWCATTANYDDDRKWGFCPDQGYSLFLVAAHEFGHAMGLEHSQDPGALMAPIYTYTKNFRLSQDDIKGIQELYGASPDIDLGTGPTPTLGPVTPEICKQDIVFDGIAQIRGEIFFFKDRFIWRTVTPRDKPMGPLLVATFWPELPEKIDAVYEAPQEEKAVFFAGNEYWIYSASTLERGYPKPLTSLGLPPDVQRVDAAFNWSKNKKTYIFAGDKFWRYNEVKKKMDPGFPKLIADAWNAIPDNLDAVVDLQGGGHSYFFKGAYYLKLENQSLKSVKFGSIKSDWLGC

Prothrombin = Prothrombin (Bos taurus, UniProt P00735); assay: thrombin inhibition, dose response, biochemical, fluorescence polarization, uHTS hits (AID 602369); assay type: functional

O=C(/C=N/O)Nc1ccc(F)cc1
IC50 [1]: > 64 µM (inactive)

COc1ccc(OC)c(/C=C2\SC(NNC(=O)c3ccc4ccccc4c3)=NC2=O)c1
IC50 (SUMO-activating enzyme [2]): 2.14 µM (active)
AC50 [3]: 2.36 µM (active)
IC50 (SUMO-activating enzyme [4]): 18.1 µM (active)

Cc1cc(Br)ccc1NC(=O)CCCOc1cc(=O)n(C)c2ccccc12
EC50 [5]: > 49.7 µM (inactive)
EC50 (Wee1-like protein kinase): > 49.7 µM (inactive)

OC1CCN(c2cc(-c3ccccc3)nc3cc(-c4ccc(F)cc4)nn23)CC1
AC50 [6]: 11.8 µM (active)
AC50 [3]: 4.72 µM (active)

C=CCN1CC[C@]23c4c5ccc(O)c4O[C@H]2C(=O)CC[C@@]3(O)[C@H]1C5 [NALOXONE HYDROCHLORIDE]
EC50 (Beta-galactosidase): > 31.5 µM (inactive)

O=C(O)c1ccc([N+](=O)[O-])c2c1NC(C(=O)O)C1CC=CC21 (configuration not stated)
IC50 [7]: > 100 µM (not active)
IC50 [8]: > 100 µM (not active)
IC50 [9]: > 100 µM (inactive)
IC50 [10]: 90.6 µM (active)
IC50 [11]: > 100 µM (inactive)
IC50 [12]: 92.9 µM (active)

O=C(CSCCO)Nc1ccc(C23C[C@H]4C[C@@H](C2)C[C@@H](C3)C4)cc1
IC50 [13]: > 80 µM (inactive)

CCCCn1c(=O)c(C(=O)NCc2ccccc2)c(O)c2ccccc21
EC50 (Streptococcus [14]): > 500 µM (not active)
EC50 (Streptokinase A): 6.35 µM (active)
EC50 [15]: 17.5 µM (active)
AC50 [3]: 8.37 µM (active)
EC50 (Streptococcus [16]): > 150 µM (inconclusive)

Oc1c(C(c2ccccn2)N2CCOCC2)ccc2cccnc12 (configuration not stated)
EC50 [17]: > 150 µM (inactive)
IC50 [18]: 2.36 µM (active)
EC50 [19]: > 38 µM (not active)
IC50 (Estrogen receptor beta): > 50 µM (not active)
IC50 [20]: > 50 µM (not active)
EC50 [21]: 74.8 µM (active)
EC50 [22]: > 20 µM (not active)
EC50 [23]: > 20 µM (not active)
IC50 [24]: > 67 µM (not active)

N#Cc1c(SCC(=O)Nc2nc3ccc(Br)cc3s2)sc2c(O)cc(=O)[nH]c12
IC50 [25]: 12.8 µM (active)
IC50 [26]: 8.28 µM (active)
IC50 [27]: > 109 µM (not active)
IC50 (Hexokinase HKDC1): 24.8 µM (inactive)
IC50 (Bcl-2-like protein 1): > 109 µM (not active)
IC50 [28]: 3.94 µM (active)
IC50 (Prothrombin): 71.2 µM (active)
